Data reported in US11667602B2, “Compounds and their use” (AstraZeneca AB, priority 2020, dated 2023).
Values after ≈ are worked out from the molar mass of the structure shown.

What was measured:
[1] = target: T1, human RXFP1 (Homo sapiens, UniProt Q9HBX9); assay: RXFP1 Hu cAMP (Test A); format: cell-based; set-up: expressed in transfected cells; host or cells: Jump-In T-REx CHO-K1 cells (ThermoFisher), induced with 10 ng/ml doxycycline for 24 h; details: RXFP1 Hu cAMP; for EC50: read-out: Test A EC50
T1 sequence (Q9HBX9 1-757): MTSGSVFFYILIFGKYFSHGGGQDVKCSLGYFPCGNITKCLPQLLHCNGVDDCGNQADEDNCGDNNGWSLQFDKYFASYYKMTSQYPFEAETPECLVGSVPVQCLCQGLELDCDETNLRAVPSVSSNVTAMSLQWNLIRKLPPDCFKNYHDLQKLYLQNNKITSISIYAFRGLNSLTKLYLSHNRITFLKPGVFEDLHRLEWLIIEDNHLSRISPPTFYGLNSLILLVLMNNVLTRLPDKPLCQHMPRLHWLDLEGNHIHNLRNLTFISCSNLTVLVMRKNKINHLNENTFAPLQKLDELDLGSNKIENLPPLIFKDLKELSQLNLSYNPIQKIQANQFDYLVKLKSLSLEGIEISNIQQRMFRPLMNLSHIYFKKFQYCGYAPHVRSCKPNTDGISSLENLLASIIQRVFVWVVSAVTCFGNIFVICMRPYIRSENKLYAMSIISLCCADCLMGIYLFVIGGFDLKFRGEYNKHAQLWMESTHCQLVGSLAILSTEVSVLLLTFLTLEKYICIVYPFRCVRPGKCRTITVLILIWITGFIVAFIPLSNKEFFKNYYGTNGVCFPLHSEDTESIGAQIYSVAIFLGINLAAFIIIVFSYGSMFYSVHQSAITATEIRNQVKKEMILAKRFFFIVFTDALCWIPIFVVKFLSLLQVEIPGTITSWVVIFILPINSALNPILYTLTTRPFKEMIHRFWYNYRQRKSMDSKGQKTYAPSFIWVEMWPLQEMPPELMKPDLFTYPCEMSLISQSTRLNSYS
How it was run: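 Read-out is HTRF signal, inversely proportional to cAMP, converted to cAMP amount by standard curve. Stimulation occurred in inducible CHO-K1 cells expressing the human receptor with phosphodiesterases blocked by 0.5 mM IBMX.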

[2] = Human Plasma Protein Binding (Test B); format: in vitro ADME; details: fraction unbound (fu)
Protocol: Human Plasma Protein Binding (Test B)
The assay was conducted according to the Human Plasma Protein Binding Assay described in pages 167-170 of Wernevik, J. et al., “A Fully Integrated Assay Panel for Early Drug Metabolism and Pharmacokinetics Profiling”, Assay and Drug Development Technologies, 2020, 18(4), 157-179. Data are reported in Table 36 as fraction unbound (fu) (% free). Where the assay was run multiple times for the same compound, the arithmetic mean is reported.

[3] = Human Liver Microsomal Stability (Test C); format: in vitro ADME; details: human, liver microsomes
Protocol: Human Liver Microsomal Stability (Test C)
The assay was conducted according to the Human Liver Microsome Stability Assay described in pages 170-174 of Wernevik, J. et al., “A Fully Integrated Assay Panel for Early Drug Metabolism and Pharmacokinetics Profiling”, Assay and Drug Development Technologies, 2020, 18(4), 157-179. Data are reported in Table 36 as CLint (μl/min/mg protein). Where the assay was run multiple times for the same compound, the arithmetic mean is reported.

[4] = Solubility (Test F); format: physicochemical; details: arithmetic mean if run multiple times
Protocol: The assay was conducted according to the Solubility Assay described in pages 164-167 of Wernevik, J. et al., “A Fully Integrated Assay Panel for Early Drug Metabolism and Pharmacokinetics Profiling”, Assay and Drug Development Technologies, 2020, 18(4), 157-179. Data are reported in Table 36 as solubility ([…]. Where the assay was run multiple times for the same compound, the arithmetic mean is reported.

[5] = Rat Hepatocyte Stability (Test E); format: in vitro ADME; details: rat, hepatocytes, geometric mean if run multiple times
Protocol: Rat Hepatocyte Stability (Test E)
The assay was conducted according to the Rat Hepatocyte Stability Assay described in pages 170-174 of Wernevik, J. et al., “A Fully Integrated Assay Panel for Early Drug Metabolism and Pharmacokinetics Profiling”, Assay and Drug Development Technologies, 2020, 18(4), 157-179. Data are reported in Table 36 as mean Clint(μl/min/10^6 cells). Where the assay was run multiple times for the same compound, the geometric mean is reported.

Test A Sinf [1]	EC50 [1]	Test B Human Plasma Protein Binding (% free) [2]	microsomal CLint [3]	solubility [4]	hepatocyte CLint [5]	Compound
102%	31 nM	<0.32 % free	24 µL/min/mg	> 1000 µM	8.8 µL/min/1e6 cells	COc1cc(F)c(-c2ccc3c(c2)OC[C@H]3CC(=O)O)cc1C(=O)N[C@@H]1[C@H]2CC[C@H](C2)[C@@H]1C(=O)Nc1cccc(S(=O)(=O)C(F)(F)F)c1 [Example 253]
97%		3.2 % free	4.3 µL/min/mg	770 µM (≈ 416 µg/mL)	22 µL/min/1e6 cells	COc1cc(F)c(O[C@H]2CC[C@@](C)(C(=O)O)CC2)cc1C(=O)Nc1c(C)cccc1C(=O)NCC1(C)CCC1 [Example 156, (1s,4s)-4-(2-Fluoro-4-methoxy-5-((2-methyl-6-(((1-methylcyclobutyl)methyl)carbamoyl)phenyl)carbamoyl)phenoxy)-1-methylcyclohexane-1-carboxylic acid]
103%	220 nM	1.7 % free	40 µL/min/mg	290 µM (≈ 164 µg/mL)	79 µL/min/1e6 cells	COc1cc(F)c(O[C@H]2CC[C@@H](C(=O)O)CC2)cc1C(=O)N[C@@H]1[C@H]2CC[C@H](C2)[C@@H]1C(=O)Nc1cccc(C(C)C)c1 [Example 196, (1S,4s)-4-(2-Fluoro-5-(((1S,2R,3S,4R)-3-((3-isopropylphenyl)carbamoyl)bicyclo[2.2.1]heptan-2-yl)carbamoyl)-4-methoxyphenoxy)cyclohexane-1-carboxylic acid]
97%	1000 nM	1.8 % free	29 µL/min/mg	590 µM (≈ 358 µg/mL)	45 µL/min/1e6 cells	COc1cc(F)c(O[C@H]2CC[C@@H](C(=O)O)CC2)cc1C(=O)N[C@@H]1[C@H]2CC[C@H](C2)[C@@H]1C(=O)Nc1cccc(C(F)(F)F)c1C [Example 24]
100%	> 7300 nM	11 % free	9.2 µL/min/mg	27 µM (≈ 14.3 µg/mL)	67 µL/min/1e6 cells	COc1cc(F)c(O[C@H]2CC[C@@H](C(=O)O)CC2)cc1C(=O)N[C@@H]1[C@H]2CC[C@H](C2)[C@@H]1C(=O)NC1CCCCC1 [Example 9, (1S,4s)-4-(5-(((1S,2R,3S,4R)-3-(Cyclohexylcarbamoyl)bicyclo[2.2.1]heptan-2-yl)carbamoyl)-2-fluoro-4-methoxyphenoxy)cyclohexane-1-carboxylic acid]
103%	210 nM	0.50 % free	13 µL/min/mg	> 1000 µM	14 µL/min/1e6 cells	COc1cc(F)c(-c2ccc(C(=O)O)c(F)c2)cc1C(=O)N[C@@H]1[C@H]2CC[C@H](C2)[C@@H]1C(=O)Nc1cccc(S(=O)(=O)C(F)(F)F)c1 [Example 236, 2′,3-Difluoro-4′-methoxy-5′-(((1S,2R,3S,4R)-3-((3-((trifluoromethyl)sulfonyl)phenyl)carbamoyl)bicyclo[2.2.1]heptan-2-yl)carbamoyl)-[1,1′-biphenyl]-4-carboxylic acid]
79%	750 nM	0.44 % free	18 µL/min/mg	380 µM (≈ 242 µg/mL)	29 µL/min/1e6 cells	COc1cc(F)c(-c2cccc(CCC(=O)O)c2)cc1C(=O)N[C@@H]1CCC[C@@H]1C(=O)Nc1cccc(S(=O)(=O)C(F)(F)F)c1 [Example 319]
	> 5000 nM	0.59 % free	7.4 µL/min/mg	890 µM (≈ 466 µg/mL)	18 µL/min/1e6 cells	COc1cc(C#N)c(O[C@H]2C[C@@](C)(C(=O)O)C2)cc1C(=O)N[C@@H]1[C@H]2CC[C@H](C2)[C@@H]1C(=O)NCC1(C)CCC1 [Example 148, (1S,3s)-3-(2-cyano-4-methoxy-5-(((1S,2R,3S,4R)-3-(((1-methylcyclobutyl)methyl)carbamoyl)bicyclo[2.2.1]heptan-2-yl)carbamoyl)phenoxy)-1-methylcyclobutane-1-carboxylic acid]
99%	140 nM	0.69 % free	12 µL/min/mg	550 µM (≈ 366 µg/mL)	12 µL/min/1e6 cells	COc1cc(F)c(-c2ccc(OCC(=O)O)nc2)cc1C(=O)N[C@@H]1[C@H]2CC[C@H](C2)[C@@H]1C(=O)Nc1cccc(S(=O)(=O)C(F)(F)F)c1 [Example 241]
	> 5000 nM	10 % free	11 µL/min/mg	860 µM (≈ 512 µg/mL)	38 µL/min/1e6 cells	COc1cc(C#N)c(O[C@H]2CC[C@@](C)(C(=O)O)CC2)cc1C(=O)N[C@@H]1[C@H]2CC[C@H](C2)[C@@H]1C(=O)NCC1(O)CCCCCC1 [Example 103]
109%	20 nM	0.24 % free	26 µL/min/mg	8.7 µM (≈ 5.84 µg/mL)	19 µL/min/1e6 cells	COc1cc(F)c(O[C@H]2CC[C@@H](C(=O)O)CC2)cc1C(=O)N[C@@H]1[C@H]2CC[C@H](C2)[C@@H]1C(=O)Nc1ccc(Br)c(C(F)(F)F)c1 [Example 23]
94%	420 nM	1.3 % free	14 µL/min/mg	390 µM (≈ 256 µg/mL)	13 µL/min/1e6 cells	COc1cc(F)c(O[C@H]2CC[C@@H](C(=O)O)CC2)cc1C(=O)N[C@@H]1[C@H]2CC[C@H](C2)[C@@H]1C(=O)Nc1ccc(S(=O)(=O)C(F)(F)F)cc1 [Example 15, (1S,4s)-4-(2-Fluoro-4-methoxy-5-(((1S,2R,3S,4R)-3-((4-((trifluoromethyl)sulfonyl)phenyl)carbamoyl)bicyclo[2.2.1]heptan-2-yl)carbamoyl)phenoxy)cyclohexane-1-carboxylic acid]
102%	420 nM	0.59 % free	31 µL/min/mg	440 µM (≈ 246 µg/mL)	130 µL/min/1e6 cells	COc1cc(F)c(O[C@H]2CC[C@@H](C(=O)O)CC2)cc1C(=O)N[C@@H]1[C@H]2CC[C@H](C2)[C@@H]1C(=O)Nc1cccc(Cl)c1 [Example 25]
		11 % free	7.6 µL/min/mg	840 µM (≈ 434 µg/mL)	11 µL/min/1e6 cells	COc1cc(F)c(O[C@H]2C[C@@](C)(C(=O)O)C2)cc1C(=O)N[C@@H]1[C@H]2CC[C@H](C2)[C@@H]1C(=O)NCC1(C)CCC1 [Example 149, (1S,3s)-3-(2-fluoro-4-methoxy-5-(((1S,2R,3S,4R)-3-(((1-methylcyclobutyl)methyl)carbamoyl)bicyclo[2.2.1]heptan-2-yl)carbamoyl)phenoxy)-1-methylcyclobutane-1-carboxylic acid]
		6.9 % free	15 µL/min/mg	960 µM (≈ 525 µg/mL)	12 µL/min/1e6 cells	COc1cc(F)c(O[C@H]2CC[C@@](C)(C(=O)O)CC2)cc1C(=O)N[C@@H]1[C@H]2CC[C@H](C2)[C@@H]1C(=O)N[C@@H](C)C(C)(C)C [Example 45]
